Measurements: US20230277508A1, “USE OF COMPOUND AS CYP2E1 INHIBITOR” (SHANGHAI LING XI BIOTECHNOLOGY DEVELOPMENT CO., LTD., priority 2020, published 2023)
Marks after values point to notes of the source that are not given here.

Assays:
[1] = tested on: hyperlipidemia and aortic atherosclerotic plaques in ApoE-/- mice; test: ApoE-/- mouse hyperlipidemia model induced by a high-fat diet; format: in vivo; conditions: for High-density lipoprotein / Low-density lipoprotein / Total cholesterol / Triglyceride: serum, 16 weeks, n=8
Description: Experimental method: ApoE^−/− mice were fed with a high-fat and high-cholesterol feed to construct an ApoE^−/− mouse hyperlipidemia model. An SMI0 intervention group was divided into a low-dose intervention group and a high-dose intervention group, which were administered with the compound SMI0 at 30 mg/kg and 150 mg/kg every day from the beginning of modeling to the end of the 16-week modeling. At the end of the experiment, blood was collected from the orbit, and the levels of blood lipid-associated indexes in the serum of each mouse were determined by an automatic biochemical analyzer (8 mice in each group).

[2] = tested on: Lewis lung cancer cells; test: Direct effect on proliferation of Lewis lung cancer cells (CCK8); format: cell-based; conditions: up to 100 μmol/L, 24 h
Description: (§1) Experimental method: Lewis lung cancer cells and A549 lung cancer cells in a logarithmic growth phase each were selected and inoculated into a 96-well plate at a concentration of 1*10^5 cells/mL, then 100 μL of a basic medium including SMI0 at different concentrations (0 μmol/L, 0.16 μmol/L, 0.8 μmol/L, 4 μmol/L, 20 μmol/L, and 100 μmol/L) was added to each well, and 24 h later, 10 μL of a CCK8 reagent was added to each well; and the cells were further cultivated for 2 h, and an absorbance OD value of each well was determined at 450 nm by a microplate reader. 3 replicates were set for each well, and an average was taken. The proliferation activity was calculated based on the OD value.

[3] = tested on: focal cerebral ischemia-reperfusion injury in rats; test: Focal CIRI rat model with MCAO; format: in vivo
Excerpt: Experimental method: A focal CTRI rat model with middle cerebral artery occlusion (MCAO) was constructed by a modified Zea-longa suture-occluded method.

[4] = tested on: LPS-induced acute lung injury (ALI) in mice; test: LPS-induced mouse lung injury; format: in vivo, C57BL/6N mouse
Description: Experimental method: A C57BL/6N mouse pulmonary fibrosis model was established through intratracheal instillation with 8 mg/kg LPS. An SMI0 intervention group was divided into a low-dose group and a high-dose group, which were intragastrically administered with the compound SMI0 respectively at 30 mg/kg and 90 mg/kg every day from three days before modeling until 6 h before the end of the modeling (control group, n=8; model group, n=8; and SMI0 compound high-dose group, n=8). At the end of the experiment, a body weight of mice in each group was recorded, blood was collected from the orbit, the mice were sacrificed, and lung tissues were collected and weighed. The left lungs were fixed in 4% formalin and subjected to HE staining.
Experimental method: A neutrophil level in a mouse lung tissue was evaluated through immunohistochemistry (IHC) staining, and an immunostaining-positive area percentage was quantitatively evaluated by Image-Pro Plus software. RNA of a mouse lung tissue was extracted by a kit method, and expression levels of TNF-α and IL-1β in lung tissues of mice were determined by RT-PCR.

[5] = tested on: U251 glioma cells; test: Direct effect on U251 glioma cells in vitro (CCK8); format: cell-based, human; conditions: up to 128 μmol/L or 200 μmol/L
Description: as §1, with “GL261 murine glioma” for “Lewis lung cancer”, “U251 human glioma” for “A549 lung cancer”, “5*10^5” for “1*10^5”, “100 μL of a cell suspension was added to each well, and 12 h later, a medium was discarded; 200” for “100”, “([…])” for “(0 μmol/L, 0.16 μmol/L, 0.8 μmol/L, 4 μmol/L, 20 μmol/L, and 100 μmol/L)”

[6] = tested on: collagen-induced rheumatoid arthritis in rats; test: Collagen-induced rat rheumatoid arthritis model; format: in vivo, SD rat; conditions: SMI0 75, 37.5 and 18.75 mg/kg ig once daily, day 21, vs model group
Description: Experimental method: A collagen emulsion was used to construct an SD rat rheumatoid arthritis model. 50 rats successfully modeled were randomly divided into five groups: model group (normal saline (NS), 0.5 mL/kg, i.g.); positive control group (celecoxib, 5 mg/kg, i.g.); SMI0 low-dose group (18.75 mg/kg, i.g.); SMI0 medium-dose group (37.5 mg/kg, i.g.); and SMI0 high-dose group (75 mg/kg, i.g.). The rats each were administered once every day starting from the first day after successful modeling. A thickness of each of the left and right hindfeet and the left and right forefeet of rats was measured every day by a vernier caliper, and a volume of each of the left and right hindfeet of rats was measured by a rat foot swelling measuring instrument (which was measured every 12 h in the first 3 days). A foot swelling rate of each rat was calculated according to a change of a hindfoot volume of the rat relative to a hindfoot volume of the rat before the modeling at each time point, and a difference in foot swelling rate between groups of rats was analyzed. After the successful modeling, blood was collected from the orbit on day 7; rats were sacrificed on day 20, blood was collected, and serum was isolated; and tissues such as ankles, toe joints, spleens, and livers were collected. […]

[7] = tested on: B16-F10 cell lung metastasis; test: Lung metastasis model, tail vein injection of melanoma cell B16-F10; format: in vivo, C57BL/6 mouse; conditions: SMI0 30 mg/kg, 14 days
Description: Experimental method: A female C57BL/6 mouse lung metastasis model was constructed through tail vein injection of a melanoma cell B16-F10, with a cell amount of 8*10^5. Mice were divided into a control group, a model group, and an SMI0 intervention group, and the modeling took 14 days (control group, n=5; model group, n=5; and SMI0 (30 mg/kg), n=4). At the end of the experiment, a body weight of mice in each group was recorded, blood was collected from the orbit, the mice were sacrificed, and lung tissues were collected and weighed. The lung tissues were fixed in a formalin solution for 24 h, and a number of lung nodules of mice in each group was recorded.

[8] = RT-PCR, SMI0 high-dose group vs model group, P<0.05

## CC(=O)c1scnc1C [SMI0]
[1]; SMI0 high-dose group 150 mg/kg vs model group, P<0.01
  total area of aortic root lesions (HE staining): significantly reduced
[1]; SMI0 high-dose group 150 mg/kg vs model group, P<0.05
  total area of aortic root lesions (oil red O staining): significantly reduced
[1]; SMI0 30 mg/kg daily
  High-density lipoprotein: 2.37 ± 0.49 mmol/L
  Low-density lipoprotein: 17.94 ± 11.16 mmol/L
  Total cholesterol: 20.45 ± 10.77 mmol/L
  Triglyceride: 0.56 ± 0.04 mmol/L
[1]; SMI0 150 mg/kg daily
  High-density lipoprotein: 3.68 ± 0.33*^@ mmol/L
  Low-density lipoprotein: 1.50 ± 0.77^@ mmol/L
  Total cholesterol: 5.35 ± 0.55^@ mmol/L
  Triglyceride: 0.40 ± 0.10 mmol/L
[2]
  effect on the proliferation of Lewis lung cancer cells: no significant inhibitory effect
[3]; SMI0 150 mg/kg
  inhibition rate on the cerebral edema volume: 34.39%
  inhibition rate on the cerebral infarction volume: 36.06%
[3]; SMI0 150 mg/kg ig 10 min before reperfusion, 24 h reperfusion, model group 19.25%
  cerebral edema volume: 12.63%
[3]; SMI0 150 mg/kg ig 10 min before reperfusion, 24 h reperfusion, model group 51.03%
  cerebral infarction volume: 32.62%
[4]; [8]
  expression level of IL-1β in the lung tissue: significantly reduced
  expression level of TNF-α in the lung tissue: significantly reduced
[4]; SMI0 administration group vs model group
  lung injury score: significant reduced
[4]; SMI0 high-dose group vs model group, P<0.05
  MPO immunostaining-positive area percentage in lung tissue: significantly reduced
[4]; both SMI0 low-dose (30 mg/kg) and high-dose (90 mg/kg) groups, ig daily, vs model group, P<0.01
  lung index: significantly reduced
[5]
  effect on the proliferation of U251 glioma cells: no significant inhibitory effect
[6]
  foot swelling degrees: significantly reduced
[7]; vs model group
  lung weight: significantly reduced
  number of nodules: significantly reduced
[7]; as high as
  tumor proliferation inhibition rate: 58.3%
